Results as given in patent publication US11180791B2, “MYO1A for predicting conversion of acute pain into chronic pain and use of MYO1A for therapy of pain” (UNIVERSITE D'AIX-MARSEILLE, priority 2016, dated 2021).
Entries after “also recorded” stand apart in the source; their conditions may differ.

Experiments:
WT and Myo1a KO mice [1] = experiment: Spared nerve injury (SNI) neuropathic pain model, mechanical thresholds (Von Frey, up-down); format: in vivo; conditions: for reversal of SNI-induced mechanical hypersensitivity: both genotypes (WT and Myo1a KO), i.t 10 nmol SNC80, 0.2 nmol DAMGO, 0.1 μg baclofen, 2 μg TAFA4, 40 μg taurine, i.p 3 mg/kg pregabalin
Experimental: (A-D) Mechanical responses of WT and KO mice following SNI surgery and i.t administration at indicated time-points of 10 nmol of SNC80, 0.2 nmol of DAMGO (A), 0.1 μg of baclofen, 2 μg of TAFA4 (n=6 mice per genotype) (B), 40 μg of taurine, i.p administration of 3 mg/kg of pregabalin (n=8 mice per genotype) (C) and i.t administration of 0.15 μg of muscimol (n=8 mice per genotype) (D).
(§1) SNC80 (Tocris Bioscience) was dissolved in a 100 mM HCl solution, DAMGO (Sigma Aldrich) was dissolved in saline (0.9% NaCl), Baclofen (Sigma Aldrich) was dissolved in H2O (pH7.6), recombinant human TAFA4 (R&D Systems) was dissolved in saline, Diazepam (DZP, Roche) was dissolved in 10% dimethyl sulfoxide (DMSO)/90% saline, Muscimol (Tocris Bioscience), Taurine (Sigma Aldrich), Bicuculline (Sigma Aldrich) and Pregabalin (Sigma Aldrich) were dissolved in Phosphate Buffer (PB, 50 mM, pH 7.4).
(§2) Except for pregabalin, all drugs were administrated via intratechal (i.t) injection. Pregabalin was injected intra-peritoneally (i.p).
(§3) All behavioral analyses were conducted on 8-12 weeks old Myo1a KO and WT males. All experiments were carried at room temperature (˜22° C.). Animals were acclimated for one hour to their testing environment prior to all experiments. Experimenters were blind to the genotype of the mice during testing. All error bars represent SEM. All statistical analysis was carried using Two Way Repeated Measures ANOVA followed by Bonferroni's post-hoc test. Openfield, Rotarod, Hot plate and Formalin tests were carried as described in Gaillard et al., 2014 (Gaillard et al., 2014).
(§4) Mechanical thresholds of the plantar surface were determined using Von Frey's filaments with the up-down method (Chaplan et al., 1994), previously as described (Gaillard et al., 2014) prior to and at several time-points after inflammation, neuropathy and paw-incision surgery.
Spared nerve injury surgery was performed as described (Shields et al., 2003). Briefly, mice were anesthetized with a mix of ketamine/xylazine and an incision was made through the skin and thigh muscle at the level of the trifurcation of the sciatic nerve. The common sural and peroneal nerves were ligated using a 6.0 silk filament (Ethicon, Piscataway, N.J., USA) and transected, while leaving the tibial nerve intact. After surgery, the animals were allowed to recover in a warming chamber, and then they were returned to their home cages. Mechanical thresholds were determined at days 7, 9 and 14 post-surgery, before and after drug administration.

WT and Myo1a KO mice [2] = experiment: Zymosan-A induced inflammatory pain model, mechanical thresholds (Von Frey, up-down); format: in vivo; conditions: for reversal of zymosan-induced mechanical hypersensitivity: i.t 0.15 μg muscimol, 0.09 mg/kg DZP
Experimental: (E-G) Mechanical responses of WT and KO mice following zymosan-induced inflammation (n=9 mice per genotype) (E) and i.t administration at indicated time-points of 0.15 μg of muscimol, 10 nmol of SNC80 (n=9 mice per genotype) (F) and 0.09 mg/kg of DZP (G) (n=7 mice per genotype). Data are presented as mean±SEM for each group (*p<0.05; **p<0.01; ***p<0.001; ns: non-significant).
as §1, §2, §3, §4
20 μl of a solution containing 1% carrageenan in H2O (weight/vol, Sigma) or 20 μl of a solution containing 0.06 mg Zymosan-A in 0.9% NaCl (weight/vol, Sigma), were injected subcutaneously into the plantar side of the left hindpaw, using a 30 G needled syringe.
For carrageenan-induced inflammation, mechanical thresholds were determined prior to inflammation and at several time-points (see legend) starting from 1 hour and up to 60 days after inflammation. For zymosan inflammation, mechanical thresholds were measured prior to injection, at day 1 and at several time-points (see legend) up day 60. In addition, mechanical thresholds in the zymosan model were measured before inflammation, at day 1 and day 2, before and after drug administration.

laminae II neurons = experiment: Whole-cell patch-clamp recording of spontaneous EPSC in spinal cord slices; format: cell-based, mice
Experimental: (C-F) Whole cell recordings of spontaneous EPSC in laminae II interneurons after Musc application in naïve (C-D) and in zymosan-inflamed WT and KO mice (E-F).
Left panels: representative traces of EPSC obtained under ACSF (black traces), following superfusion of 5 μM Musc (blue traces) and during wash (brown traces).
Middle panels: Cumulative distribution of EPSC intervals (in seconds) for the experiments shown in the left panels. Note the shift of the Musc/blue curves towards the left (C, D, E middle panels), indicating a reversible increase in EPSC frequency.
Right panels: Normalized EPSC frequency (mean±SEM) under ACSF, following superfusion of 5 μM Musc and during wash. Note the absence of effect of Musc in slices from zymosan inflamed mice. The number of recorded cells is indicated in the right panels (*p<0.05; **p<0.01; ns: non-significant). (See also FIG. 8).
Transverse spinal cord slices with attached dorsal roots from juvenile (P24 to P45) Myo1a KO and WT mice were prepared for whole-cell recording. Briefly, the animals were anesthetized using Pentobarbital (200 mg/kg), perfused with ice cold oxygenated low calcium artificial cerebrospinal fluid (ACSF; in mM: NaCl 101; KCl 3.8; MgCl2 18.7, MgSO4 1.3; KH2PO4 1.2; HEPES 10; CaCl2 1; Glucose 1), and then beheaded. The vertebral column and surrounding muscles were quickly removed and immersed in ice cold oxygenated ACSF. Following laminectomy, the spinal cord was gently removed and its lumbar part was placed into a small 3% agarose block. Spinal slices (300 μm thick) were cut using a Leica VTS1000 vibratome, and transferred in warm (31° C.) ACSF (in mM: NaCl 130.5; KCl 2.4; CaCl2 2.4; NaHCO3 19.5; MgSO4 1.3; KH2PO4 1.2; HEPES 1.25; glucose 10; pH 7.4) equilibrated with 95%02-5% CO2 for at least one hour before starting patch clamp recordings. Spinal slices were placed in a recoding chamber bathed with warmed (31° C.) ACSF Electrophysiological measurements were performed under the control of an Olympus BX51 microscope using a multiclamp 2B (Molecular devices). Patch pipettes ([…]) were filled with C-based pipette solution (in mM: CsMethaneSulfonate 120; CsCl 20; CaCl2 0.1; MgCl2 1.3; EGTA 1; HEPES 10; GTP 0.1; cAMP 0.2; Leupeptin 0.1; Na2ATP 3; D-Manitol 77; pH 7.3). A glass suction electrode connected to a Master 8 (A.M.P. Instrument Ltd) stimulator was used to stimulate dorsal roots. Typically, a pair of high duration (500 μs) high intensity stimulations (350 μA) was used to recruit most primary afferent fibers in the recorded slice. All drugs were purchased from Sigma. Statistical comparison of EPSC frequencies was assessed for each cell using Kolmogorov-Smirnov test.

Compound | reversal of injury-induced mechanical hypersensitivity (conclusions summary) (WT and Myo1a KO mice [1]; Myo1a KO mice) | reversal of SNI-induced mechanical hypersensitivity (WT and Myo1a KO mice [1]) | other results
TAFA4: recombinant human TAFA4 (R&D Systems), a chemokine-like protein | transiently reversed | significantly reversed | –
CC(C)C[C@H](CN)CC(=O)O [pregabalin] | transiently reversed | significantly reversed | –
C[C@@H](NC(=O)[C@@H](N)Cc1ccc(O)cc1)C(=O)NCC(=O)N(C)[C@@H](Cc1ccccc1)C(=O)NCCO [DAMGO] | – | significantly reversed | –
CN1C(=O)CN=C(c2ccccc2)c2cc(Cl)ccc21 [diazepam] | – | – | reversal of zymosan-induced mechanical hypersensitivity (WT and Myo1a KO mice [2]; Myo1a KO mice, 0.09 mg/kg): had no effect and not; reversal of zymosan-induced mechanical hypersensitivity (WT and Myo1a KO mice [2]; Myo1a KO mice, listed as DZP, 0.09 mg/kg): totally insensitive; reversal of zymosan-induced mechanical hypersensitivity (WT and Myo1a KO mice [2]; WT mice): strongly reversed
C=CCN1C[C@H](C)N([C@H](c2ccc(C(=O)N(CC)CC)cc2)c2cccc(OC)c2)C[C@H]1C [SNC80] | – | significantly reversed | reversal of zymosan-induced mechanical pain (WT and Myo1a KO mice [2]; both genotypes, i.t 10 nmol SNC80): strongly reversed
NCCS(=O)(=O)O [taurine] | transiently reversed | significantly reversed | –
NCC(CC(=O)O)c1ccc(Cl)cc1 (stereo not shown) [baclofen] | transiently reversed | significantly reversed | –
NCc1cc(=O)[nH]o1 [muscimol] | not | – | reversal of SNI-induced mechanical pain (WT and Myo1a KO mice [1]; Myo1a KO mice, i.t 0.15 μg muscimol): completely failed to reverse; also recorded: totally insensitive; reversal of zymosan-induced mechanical hypersensitivity (WT and Myo1a KO mice [2]; Myo1a KO mice): had no effect; reversal of zymosan-induced mechanical hypersensitivity (WT and Myo1a KO mice [2]; WT mice): strongly reversed; sEPSC frequency (laminae II neurons; naïve WT mice, bath application of 5 μM muscimol): significant increase; increase in sEPSC frequency (laminae II neurons; naïve slices from Myo1a KO mice, 5 μM muscimol): 544%; sEPSC frequency, effect relative to naïve WT (laminae II neurons; slices from WT mice inflamed with zymosan, 5 μM muscimol): almost doubled; sEPSC frequency (laminae II neurons; slices from zymosan inflamed Myo1a KO mice, 5 μM muscimol): had no effect
